Laboratory results reported in ChEMBL document CHEMBL1201862, “PubChem BioAssay data set” (2004).
Activity calls are given as the source filed them.

Legend:
ELAV-like protein 1 = ELAV-like protein 1 (Homo sapiens, UniProt Q15717); test: Identify HuR specific inhibitors.; type: functional
Hexokinase HKDC1 = biological target: T1, Hexokinase HKDC1 (Homo sapiens, UniProt Q2TB90); test: HKDC1 hexokinase inhibitors, dose response, biochemical, W721R variant (AID 504729); type: functional
T1 sequence (Q2TB90 whole entry): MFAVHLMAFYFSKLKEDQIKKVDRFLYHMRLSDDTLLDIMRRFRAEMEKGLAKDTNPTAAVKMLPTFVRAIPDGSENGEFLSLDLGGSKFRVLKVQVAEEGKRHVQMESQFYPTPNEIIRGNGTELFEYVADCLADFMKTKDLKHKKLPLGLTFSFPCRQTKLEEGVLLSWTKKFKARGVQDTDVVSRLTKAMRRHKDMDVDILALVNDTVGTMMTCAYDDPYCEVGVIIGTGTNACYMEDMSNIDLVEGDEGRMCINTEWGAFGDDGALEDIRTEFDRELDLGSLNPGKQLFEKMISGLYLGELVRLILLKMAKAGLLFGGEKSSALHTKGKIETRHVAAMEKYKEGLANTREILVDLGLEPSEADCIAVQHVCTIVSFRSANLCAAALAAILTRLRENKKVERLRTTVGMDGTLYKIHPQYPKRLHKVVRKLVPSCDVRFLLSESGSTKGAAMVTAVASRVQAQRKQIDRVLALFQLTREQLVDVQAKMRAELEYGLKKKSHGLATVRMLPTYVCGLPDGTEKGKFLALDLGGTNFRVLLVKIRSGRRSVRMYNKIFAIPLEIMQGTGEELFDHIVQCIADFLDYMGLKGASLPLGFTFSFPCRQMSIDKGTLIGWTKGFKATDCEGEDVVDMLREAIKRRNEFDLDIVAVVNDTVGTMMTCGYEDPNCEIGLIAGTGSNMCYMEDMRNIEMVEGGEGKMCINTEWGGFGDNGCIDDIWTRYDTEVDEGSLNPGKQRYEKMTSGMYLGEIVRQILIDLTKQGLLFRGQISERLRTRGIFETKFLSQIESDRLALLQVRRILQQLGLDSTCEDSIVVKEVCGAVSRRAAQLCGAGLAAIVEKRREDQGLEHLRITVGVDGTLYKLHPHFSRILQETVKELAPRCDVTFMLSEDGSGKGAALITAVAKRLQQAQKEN

[1] = Luminescence-based cell-based high throughput dose response assay to identify activators of the DAF-12 from the parasite S. stercoralis (ssDAF-12).; type: functional
[2] = biological target: Oxysterols receptor LXR-beta (Homo sapiens, UniProt P55055); test: LXR agonists, Gal4 luciferase reporter, dose response, counter-screen for ssDAF-12 agonist project, cell-based, luminescence, HEK293, S. stercoralis campaign (AID 720737); type: functional; details: read-out: IC50 (the source's name)
Oxysterols receptor LXR-beta, sequence (P55055 whole entry, the tested form may be a part): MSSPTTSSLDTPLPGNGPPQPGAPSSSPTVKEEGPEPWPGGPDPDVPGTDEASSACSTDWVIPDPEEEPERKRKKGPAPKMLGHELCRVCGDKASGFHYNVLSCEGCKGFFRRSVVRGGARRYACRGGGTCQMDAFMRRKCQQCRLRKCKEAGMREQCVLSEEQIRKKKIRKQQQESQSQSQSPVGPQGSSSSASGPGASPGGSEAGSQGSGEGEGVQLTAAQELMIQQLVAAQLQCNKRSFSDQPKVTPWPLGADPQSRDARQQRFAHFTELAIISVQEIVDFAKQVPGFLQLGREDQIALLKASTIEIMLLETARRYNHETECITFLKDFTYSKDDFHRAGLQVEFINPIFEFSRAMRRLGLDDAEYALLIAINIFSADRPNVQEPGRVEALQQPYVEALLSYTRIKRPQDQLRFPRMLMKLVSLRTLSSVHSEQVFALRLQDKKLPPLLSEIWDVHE

[3] = biological target: E3 ubiquitin-protein ligase UHRF1 (Homo sapiens, UniProt Q96T88); test: Counterscreen for inhibitors of 5-meCpG-binding domain protein 2 (MBD2): TRFRET-based biochemical high throughput dose response assay to identify inhibitors of binding of ubiquitin-like with PHD and ring finger domains 1 (UHRF1) to methylated oligonucleotide.
E3 ubiquitin-protein ligase UHRF1, sequence (Q96T88 whole entry, the tested form may be a part): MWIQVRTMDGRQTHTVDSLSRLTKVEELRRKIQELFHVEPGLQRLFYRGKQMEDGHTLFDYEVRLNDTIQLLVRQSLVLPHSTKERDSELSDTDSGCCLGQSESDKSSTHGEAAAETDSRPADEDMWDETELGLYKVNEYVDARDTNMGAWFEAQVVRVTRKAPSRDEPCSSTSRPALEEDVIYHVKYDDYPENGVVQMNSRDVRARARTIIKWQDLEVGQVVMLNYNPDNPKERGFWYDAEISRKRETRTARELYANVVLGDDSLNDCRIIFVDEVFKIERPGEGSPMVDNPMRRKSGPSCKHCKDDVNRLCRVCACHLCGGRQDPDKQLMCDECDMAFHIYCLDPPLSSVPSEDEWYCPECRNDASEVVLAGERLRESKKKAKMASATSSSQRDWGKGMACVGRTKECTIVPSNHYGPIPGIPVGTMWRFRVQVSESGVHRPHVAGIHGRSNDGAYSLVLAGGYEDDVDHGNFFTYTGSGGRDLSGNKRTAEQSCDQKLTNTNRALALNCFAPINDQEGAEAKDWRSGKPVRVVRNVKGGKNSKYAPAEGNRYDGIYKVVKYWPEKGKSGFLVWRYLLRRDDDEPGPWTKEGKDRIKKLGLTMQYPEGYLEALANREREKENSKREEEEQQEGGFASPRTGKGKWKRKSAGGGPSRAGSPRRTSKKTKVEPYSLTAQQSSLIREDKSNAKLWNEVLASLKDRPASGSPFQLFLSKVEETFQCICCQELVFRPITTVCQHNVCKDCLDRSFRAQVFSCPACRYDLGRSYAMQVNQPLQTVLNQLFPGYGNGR

Phospholipase D1 = biological target: T2, Phospholipase D1 (Homo sapiens, UniProt Q13393); test: PLD1 Cellular Concentration Response Study.; type: functional
T2 sequence (Q13393 whole entry): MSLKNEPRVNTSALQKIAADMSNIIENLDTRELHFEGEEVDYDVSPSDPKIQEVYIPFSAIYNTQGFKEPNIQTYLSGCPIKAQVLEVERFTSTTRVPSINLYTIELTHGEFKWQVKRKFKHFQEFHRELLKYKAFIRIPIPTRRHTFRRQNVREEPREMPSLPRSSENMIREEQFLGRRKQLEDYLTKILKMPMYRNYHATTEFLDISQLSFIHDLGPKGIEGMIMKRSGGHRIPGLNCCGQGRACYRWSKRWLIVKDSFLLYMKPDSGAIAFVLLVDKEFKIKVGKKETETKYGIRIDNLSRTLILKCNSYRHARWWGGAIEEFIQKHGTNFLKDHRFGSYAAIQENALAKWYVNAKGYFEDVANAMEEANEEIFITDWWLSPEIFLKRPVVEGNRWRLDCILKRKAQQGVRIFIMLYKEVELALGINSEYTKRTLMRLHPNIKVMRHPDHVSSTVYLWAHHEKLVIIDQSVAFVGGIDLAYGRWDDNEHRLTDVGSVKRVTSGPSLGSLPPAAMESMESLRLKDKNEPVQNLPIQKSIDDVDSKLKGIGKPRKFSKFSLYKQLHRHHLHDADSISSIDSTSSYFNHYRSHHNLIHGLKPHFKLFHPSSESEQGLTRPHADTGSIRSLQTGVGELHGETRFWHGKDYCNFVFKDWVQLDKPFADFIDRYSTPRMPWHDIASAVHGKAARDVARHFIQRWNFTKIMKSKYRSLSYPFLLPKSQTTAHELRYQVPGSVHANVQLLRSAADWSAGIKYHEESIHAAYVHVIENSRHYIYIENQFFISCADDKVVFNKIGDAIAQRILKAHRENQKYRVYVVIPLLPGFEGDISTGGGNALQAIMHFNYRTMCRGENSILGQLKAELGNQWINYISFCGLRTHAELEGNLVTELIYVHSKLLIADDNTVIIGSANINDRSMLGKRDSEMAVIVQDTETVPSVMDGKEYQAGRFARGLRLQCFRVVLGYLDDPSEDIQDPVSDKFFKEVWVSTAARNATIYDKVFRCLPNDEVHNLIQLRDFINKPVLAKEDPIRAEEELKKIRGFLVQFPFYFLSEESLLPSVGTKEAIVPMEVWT

Phospholipase D2 = Phospholipase D2 (Homo sapiens, UniProt O14939); test: PLD2 Cellular Concentration Response Study.; type: functional
Phospholipase D2, sequence (O14939 whole entry): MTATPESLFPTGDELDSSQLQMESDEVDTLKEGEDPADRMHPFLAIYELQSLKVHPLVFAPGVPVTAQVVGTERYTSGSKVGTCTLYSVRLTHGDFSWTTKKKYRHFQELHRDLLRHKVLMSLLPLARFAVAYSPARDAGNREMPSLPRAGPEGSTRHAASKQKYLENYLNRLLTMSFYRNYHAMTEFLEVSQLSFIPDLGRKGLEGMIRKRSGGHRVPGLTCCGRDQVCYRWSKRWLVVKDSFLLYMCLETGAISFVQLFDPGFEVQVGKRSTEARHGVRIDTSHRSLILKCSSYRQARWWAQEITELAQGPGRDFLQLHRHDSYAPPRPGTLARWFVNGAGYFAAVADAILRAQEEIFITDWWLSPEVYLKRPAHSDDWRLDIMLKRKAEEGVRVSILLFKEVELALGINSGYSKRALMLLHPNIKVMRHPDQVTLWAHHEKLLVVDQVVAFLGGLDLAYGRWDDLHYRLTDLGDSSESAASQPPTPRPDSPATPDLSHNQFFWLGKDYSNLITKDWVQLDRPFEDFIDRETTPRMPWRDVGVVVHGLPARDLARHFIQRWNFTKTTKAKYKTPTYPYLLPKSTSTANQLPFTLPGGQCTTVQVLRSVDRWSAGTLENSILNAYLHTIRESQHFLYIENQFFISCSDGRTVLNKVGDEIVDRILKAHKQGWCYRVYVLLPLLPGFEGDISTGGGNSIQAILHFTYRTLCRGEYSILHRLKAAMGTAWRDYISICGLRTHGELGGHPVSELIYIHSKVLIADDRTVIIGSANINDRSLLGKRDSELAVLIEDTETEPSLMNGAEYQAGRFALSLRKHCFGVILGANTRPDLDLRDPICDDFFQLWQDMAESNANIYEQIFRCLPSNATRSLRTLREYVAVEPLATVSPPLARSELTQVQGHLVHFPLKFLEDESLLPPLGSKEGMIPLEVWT

[4] = biological target: G-protein coupled receptor 183 (Homo sapiens, UniProt P32249); test: SAR confirmation of small molecule antagonists of the EBI2 receptor via a luminescent beta-arrestin assa.; type: functional
G-protein coupled receptor 183, sequence (P32249 whole entry): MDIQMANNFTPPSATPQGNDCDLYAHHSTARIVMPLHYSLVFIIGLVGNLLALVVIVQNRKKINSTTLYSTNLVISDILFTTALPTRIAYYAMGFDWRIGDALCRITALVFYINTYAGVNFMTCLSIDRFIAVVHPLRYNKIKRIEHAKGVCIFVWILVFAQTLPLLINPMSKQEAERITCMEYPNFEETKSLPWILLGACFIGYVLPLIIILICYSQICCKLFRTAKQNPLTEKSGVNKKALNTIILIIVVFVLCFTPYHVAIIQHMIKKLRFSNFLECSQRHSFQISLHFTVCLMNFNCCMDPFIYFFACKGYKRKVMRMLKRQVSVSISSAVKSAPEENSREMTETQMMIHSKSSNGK

cells = details: HEK293
[5] = cytotoxicity toward HCT116 cells – cell-based, CellTiter-Glo luminescence, IC50, dose response (AID 1117332); type: functional; details: HCT-116
[6] = HeLa 2N DNA content increase, dose response, cell-based, IC50 (AID 1117349); type: functional
[7] = RKO cell viability reduction, dose response, CellTiter-Glo luminescence (AID 1117322); type: functional
[8] = Concentration-dependent survival of SW480 colon cancer line, luminescence detection with CellTiter-Glo, half-maximal inhibitory concentration (AID 1117338); type: functional
[9] = CellTiter-Glo luminescent dose response of DLD-1 viability loss (AID 1117352); type: functional
[10] = HCT116 cell viability decrease, GSK3B pretreatment – CellTiter-Glo, IC50, dose response (AID 1117339); type: functional; details: HCT-116
[11] = cytotoxicity toward Colo320 cells – cell-based, CellTiter-Glo luminescence, IC50, dose response (AID 1117334); type: functional; details: COLO 320
[12] = SNU-C1 cell viability reduction, dose response, CellTiter-Glo luminescence (AID 1117323); type: functional, cell-based
[13] = HeLa 4N DNA content increase, dose response, cell-based, IC50 (AID 1117351); type: functional

ELAV-like protein 1, sequence (Q15717 whole entry): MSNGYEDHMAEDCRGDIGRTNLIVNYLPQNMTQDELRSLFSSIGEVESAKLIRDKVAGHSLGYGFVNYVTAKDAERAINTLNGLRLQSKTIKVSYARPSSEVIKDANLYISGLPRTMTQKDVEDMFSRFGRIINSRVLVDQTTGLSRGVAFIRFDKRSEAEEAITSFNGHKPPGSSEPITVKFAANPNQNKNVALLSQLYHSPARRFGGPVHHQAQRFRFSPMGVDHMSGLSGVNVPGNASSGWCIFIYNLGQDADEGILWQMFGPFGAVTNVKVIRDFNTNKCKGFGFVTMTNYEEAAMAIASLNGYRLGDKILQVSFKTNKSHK

**Q.** What does the source list for COCC(=O)OC1CCn2c1nc1c2C(=O)C(C)=C(NC(C)=O)C1=O (stereo not drawn)?
**A.** IC50 (ELAV-like protein 1): 17.4 µM (inactive); IC50 (Hexokinase HKDC1): 2.18 µM (active)

**Q.** Which results are given for CCc1ccc(-c2csc3ncn(CC)c(=O)c23)cc1?
**A.** IC50 [1]: > 67.6 µM (inactive); EC50 [2]: > 67.6 µM (inactive)

**Q.** For CC(=O)Nc1sc2c(c1-c1nc3ccccc3s1)CCCNC2, which IC50 [3] is on record?
**A.** 15.3 µM (inactive)

**Q.** For O=C(NCCN1CCC2(CC1)C(=O)NCN2C(=O)C1CC1)c1ccc2ccccc2c1, which IC50 (Phospholipase D1) is on record?
**A.** 3.1 µM (active)

**Q.** What about the IC50 (Phospholipase D2) of the same compound?
**A.** 0.44 µM (active)

**Q.** For O=C(/C=C/c1ccc(F)cc1)N1CCN(S(=O)(=O)c2ccc(F)cc2)CC1, which IC50 [4] is on record?
**A.** 0.0185 µM (active)

**Q.** With COc1ccccc1OCCn1c(SC)nc2ccccc21 as the compound, how does the AC50 (cells) read?
**A.** 29.1 µM (active)

**Q.** What does the source list for O=C1C(I)=CC(=C(c2cc(I)c(O)c(I)c2)c2ccccc2C(=O)O)C=C1I [IODOPHTHALEIN SODIUM]?
**A.** IC50 [5]: 0.384 µM (active); IC50 [6]: > 10 µM (inactive); IC50 [7]: 0.0373 µM (active); IC50 [8]: 0.112 µM (active); IC50 [9]: 0.0132 µM (active); IC50 [10]: 0.054 µM (active); IC50 [11]: 0.312 µM (active); IC50 [12]: 3.76 µM (active); IC50 [13]: > 10 µM (inactive)
